Measurements taken from PubChem BioAssay (NCI).
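A five-concentration, 48-hour dose response in 96-well plates underlies each endpoint, interpolated linearly between surrounding concentrations. The concentration for full growth arrest is given as TGI.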

Key:
Test in all cases: NCI tumour cell line growth inhibition, 48 h
786-0 renal = tested on: 786-0 renal
A498 renal = tested on: A498 renal
A549 NSCLC = tested on: A549 NSCLC
ACHN renal = tested on: ACHN renal
BT-549 breast = tested on: BT-549 breast
CAKI-1 renal = tested on: CAKI-1 renal
CCRF-CEM leukemia = tested on: CCRF-CEM leukemia
COLO 205 colon = tested on: COLO 205 colon
DU-145 prostate = tested on: DU-145 prostate
EKVX NSCLC = tested on: EKVX NSCLC
HCC-2998 colon = tested on: HCC-2998 colon
HCT-116 colon = tested on: HCT-116 colon
HCT-15 colon = tested on: HCT-15 colon
HOP-62 NSCLC = tested on: HOP-62 NSCLC
HOP-92 NSCLC = tested on: HOP-92 NSCLC
HT29 colon = tested on: HT29 colon
IGROV1 ovarian = tested on: IGROV1 ovarian
K-562 leukemia = tested on: K-562 leukemia
KM12 colon = tested on: KM12 colon
LOX IMVI melanoma = tested on: LOX IMVI melanoma
M14 melanoma = tested on: M14 melanoma
MALME-3M melanoma = tested on: MALME-3M melanoma
MCF7 breast = tested on: MCF7 breast
MDA-MB-231 breast = tested on: MDA-MB-231 breast
MDA-MB-435 = tested on: MDA-MB-435
MDA-N = tested on: MDA-N
MOLT-4 leukemia = tested on: MOLT-4 leukemia
NCI-H226 lung = tested on: NCI-H226 lung
NCI-H23 lung = tested on: NCI-H23 lung
NCI-H460 lung = tested on: NCI-H460 lung
NCI-H522 lung = tested on: NCI-H522 lung
NCI/ADR-RES ovarian = tested on: NCI/ADR-RES ovarian
OVCAR-3 ovarian = tested on: OVCAR-3 ovarian
OVCAR-4 ovarian = tested on: OVCAR-4 ovarian
OVCAR-5 ovarian = tested on: OVCAR-5 ovarian
OVCAR-8 ovarian = tested on: OVCAR-8 ovarian
PC-3 prostate = tested on: PC-3 prostate
RPMI-8226 leukemia = tested on: RPMI-8226 leukemia
RXF 393 renal = tested on: RXF 393 renal
SF-268 CNS = tested on: SF-268 CNS
SF-295 CNS = tested on: SF-295 CNS
SF-539 CNS = tested on: SF-539 CNS
SK-MEL-2 melanoma = tested on: SK-MEL-2 melanoma
SK-MEL-28 melanoma = tested on: SK-MEL-28 melanoma
SK-MEL-5 melanoma = tested on: SK-MEL-5 melanoma
SK-OV-3 ovarian = tested on: SK-OV-3 ovarian
SN12C renal = tested on: SN12C renal
SNB-19 CNS = tested on: SNB-19 CNS
SNB-75 CNS = tested on: SNB-75 CNS
SR leukemia = tested on: SR leukemia
SW-620 colon = tested on: SW-620 colon
T-47D breast = tested on: T-47D breast
TK-10 renal = tested on: TK-10 renal
U251 CNS = tested on: U251 CNS
UACC-257 melanoma = tested on: UACC-257 melanoma
UACC-62 melanoma = tested on: UACC-62 melanoma
UO-31 renal = tested on: UO-31 renal
HS 578T breast = tested on: HS 578T breast

With `CC(=O)CC1(CBr)Nc2ccc([N+](=O)[O-])cc2NC1=O` (centres undefined) the TGI (786-0 renal) was greater than 100 µM, the TGI (A498 renal) was greater than 100 µM and the TGI (A549 NSCLC) was greater than 100 µM. For the same compound, the TGI (ACHN renal) was greater than 100 µM, the TGI (BT-549 breast) was greater than 100 µM and the TGI (CAKI-1 renal) was greater than 100 µM. For the same compound, the TGI (CCRF-CEM leukemia) was greater than 100 µM, the TGI (COLO 205 colon) was greater than 100 µM and the TGI (DU-145 prostate) was greater than 100 µM. It also gave a TGI (EKVX NSCLC) greater than 100 µM, a TGI (HCC-2998 colon) greater than 100 µM and a TGI (HCT-116 colon) greater than 100 µM. For the same compound, the TGI (HCT-15 colon) was greater than 100 µM, the TGI (HOP-62 NSCLC) was greater than 100 µM and the TGI (HOP-92 NSCLC) was greater than 100 µM. It also gave a TGI (HT29 colon) greater than 100 µM, a TGI (IGROV1 ovarian) greater than 100 µM and a TGI (K-562 leukemia) greater than 100 µM. For the same compound, the TGI (KM12 colon) was greater than 100 µM, the TGI (LOX IMVI melanoma) was greater than 100 µM and the TGI (M14 melanoma) was greater than 100 µM. For the same compound, the TGI (MALME-3M melanoma) was greater than 100 µM, the TGI (MCF7 breast) was greater than 100 µM and the TGI (MDA-MB-231 breast) was greater than 100 µM. For the same compound, the TGI (MDA-MB-435) was greater than 100 µM, the TGI (MDA-N) was greater than 100 µM and the TGI (MOLT-4 leukemia) was greater than 100 µM. For the same compound, the TGI (NCI-H226 lung) was greater than 100 µM, the TGI (NCI-H23 lung) was greater than 100 µM and the TGI (NCI-H460 lung) was greater than 100 µM. For the same compound, the TGI (NCI-H522 lung) was 41.6 µM, the TGI (NCI/ADR-RES ovarian) was greater than 100 µM and the TGI (OVCAR-3 ovarian) was greater than 100 µM. It also gave a TGI (OVCAR-4 ovarian) greater than 100 µM, a TGI (OVCAR-5 ovarian) greater than 100 µM and a TGI (OVCAR-8 ovarian) greater than 100 µM. It also gave a TGI (PC-3 prostate) greater than 100 µM, a TGI (RPMI-8226 leukemia) greater than 100 µM and a TGI (RXF 393 renal) greater than 100 µM. It also gave a TGI (SF-268 CNS) greater than 100 µM, a TGI (SF-295 CNS) greater than 100 µM and a TGI (SF-539 CNS) greater than 100 µM. It also gave a TGI (SK-MEL-2 melanoma) greater than 100 µM, a TGI (SK-MEL-28 melanoma) greater than 100 µM and a TGI (SK-MEL-5 melanoma) greater than 100 µM. It also gave a TGI (SK-OV-3 ovarian) greater than 100 µM, a TGI (SN12C renal) greater than 100 µM and a TGI (SNB-19 CNS) greater than 100 µM. The TGI (SNB-75 CNS) was greater than 100 µM, the TGI (SR leukemia) was greater than 100 µM and the TGI (SW-620 colon) was greater than 100 µM. For the same compound, the TGI (T-47D breast) was greater than 100 µM, the TGI (TK-10 renal) was greater than 100 µM and the TGI (U251 CNS) was greater than 100 µM. The TGI (UACC-257 melanoma) was greater than 100 µM, the TGI (UACC-62 melanoma) was greater than 100 µM and the TGI (UO-31 renal) was greater than 100 µM.
With `COc1cc2c[n+]3c4c(c2c(OC)c1OC)CCCC4CC3` (centres undefined) the TGI (786-0 renal) was greater than 100 µM, the TGI (A498 renal) was greater than 100 µM and the TGI (A549 NSCLC) was greater than 100 µM. The TGI (ACHN renal) was greater than 100 µM, the TGI (CAKI-1 renal) was greater than 100 µM and the TGI (CCRF-CEM leukemia) was greater than 100 µM. It also gave a TGI (COLO 205 colon) greater than 100 µM, a TGI (DU-145 prostate) greater than 100 µM and a TGI (EKVX NSCLC) greater than 100 µM. The TGI (HCC-2998 colon) was greater than 100 µM, the TGI (HCT-116 colon) was greater than 100 µM and the TGI (HCT-15 colon) was greater than 100 µM. It also gave a TGI (HOP-62 NSCLC) greater than 100 µM, a TGI (HOP-92 NSCLC) greater than 100 µM and a TGI (HS 578T breast) of 62.3 µM. The TGI (HT29 colon) was greater than 100 µM, the TGI (IGROV1 ovarian) was greater than 100 µM and the TGI (K-562 leukemia) was greater than 100 µM. For the same compound, the TGI (KM12 colon) was greater than 100 µM, the TGI (M14 melanoma) was greater than 100 µM and the TGI (MALME-3M melanoma) was 46.9 µM. For the same compound, the TGI (MDA-MB-231 breast) was greater than 100 µM, the TGI (MDA-MB-435) was greater than 100 µM and the TGI (MDA-N) was greater than 100 µM. The TGI (MOLT-4 leukemia) was greater than 100 µM, the TGI (NCI-H23 lung) was greater than 100 µM and the TGI (NCI-H460 lung) was greater than 100 µM. For the same compound, the TGI (NCI-H522 lung) was greater than 100 µM, the TGI (NCI/ADR-RES ovarian) was greater than 100 µM and the TGI (OVCAR-3 ovarian) was greater than 100 µM. The TGI (OVCAR-4 ovarian) was greater than 100 µM, the TGI (OVCAR-5 ovarian) was greater than 100 µM and the TGI (PC-3 prostate) was greater than 100 µM. It also gave a TGI (RPMI-8226 leukemia) greater than 100 µM, a TGI (RXF 393 renal) greater than 100 µM and a TGI (SF-295 CNS) greater than 100 µM. The TGI (SK-MEL-2 melanoma) was greater than 100 µM, the TGI (SK-MEL-28 melanoma) was greater than 100 µM and the TGI (SK-MEL-5 melanoma) was 46.9 µM. It also gave a TGI (SK-OV-3 ovarian) greater than 100 µM, a TGI (SNB-19 CNS) greater than 100 µM and a TGI (SW-620 colon) greater than 100 µM. It also gave a TGI (T-47D breast) greater than 100 µM, a TGI (U251 CNS) greater than 100 µM and a TGI (UACC-257 melanoma) greater than 100 µM. For the same compound, the TGI (UACC-62 melanoma) was greater than 100 µM and the TGI (UO-31 renal) was greater than 100 µM.
